Measured values from patent US9718788B2, “Heteroaryl compounds useful as inhibitors of E1 activating enzymes” (MILLENNIUM PHARMACEUTICALS, INC., priority 2006, dated 2017).

Target: T1, recombinant human NAE enzyme (Homo sapiens, UniProt Q8TBC4)
T1 construct: His (N); made in house; host or cells: Sf9 insect cells (baculovirus, Bac-to-Bac)
T1 sequence (Q8TBC4 1-463): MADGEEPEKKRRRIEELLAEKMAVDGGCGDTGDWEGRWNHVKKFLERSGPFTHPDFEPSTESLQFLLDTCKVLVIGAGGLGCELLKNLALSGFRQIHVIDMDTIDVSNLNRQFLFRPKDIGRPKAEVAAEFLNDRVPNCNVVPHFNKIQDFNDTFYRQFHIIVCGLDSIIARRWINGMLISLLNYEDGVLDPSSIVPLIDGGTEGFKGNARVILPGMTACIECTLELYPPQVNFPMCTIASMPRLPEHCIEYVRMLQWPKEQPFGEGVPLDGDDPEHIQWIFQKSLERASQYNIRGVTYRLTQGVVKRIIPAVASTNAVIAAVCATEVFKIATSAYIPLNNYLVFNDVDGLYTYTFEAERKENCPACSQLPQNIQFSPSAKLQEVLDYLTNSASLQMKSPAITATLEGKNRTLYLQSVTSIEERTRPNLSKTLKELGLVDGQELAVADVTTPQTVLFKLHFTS
T1 sequence (Q13564 1-534 partner): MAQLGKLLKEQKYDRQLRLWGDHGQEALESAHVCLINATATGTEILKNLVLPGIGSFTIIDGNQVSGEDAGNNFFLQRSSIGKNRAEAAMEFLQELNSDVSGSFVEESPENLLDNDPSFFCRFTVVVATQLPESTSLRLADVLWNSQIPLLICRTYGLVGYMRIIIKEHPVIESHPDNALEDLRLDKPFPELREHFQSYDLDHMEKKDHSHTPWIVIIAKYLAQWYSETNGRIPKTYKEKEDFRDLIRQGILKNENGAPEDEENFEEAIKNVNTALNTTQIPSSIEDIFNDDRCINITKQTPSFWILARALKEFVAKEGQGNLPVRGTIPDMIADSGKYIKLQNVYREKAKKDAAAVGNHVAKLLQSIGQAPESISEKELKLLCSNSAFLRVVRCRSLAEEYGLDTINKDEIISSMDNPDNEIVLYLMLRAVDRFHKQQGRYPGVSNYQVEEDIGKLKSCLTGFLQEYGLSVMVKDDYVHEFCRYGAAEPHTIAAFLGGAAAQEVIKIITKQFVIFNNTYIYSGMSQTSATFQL
Assay: Nedd8-Activating Enzyme (NAE) HTRF Assay
Assay type: biochemical
Settings: 20 μM ATP
Summary of the method: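 Recombinant human NAE (NAEα/His-NAEβ from Sf9 cells) at 0.20 nM with 20 μM ATP, 0.01 μM Ubc12-GST and 0.075 μM Nedd8-Flag in HEPES pH 7.5, 105 min at 24° C. EDTA stop; Eu-anti-FLAG/APC-anti-GST HTRF read after 1 h.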

Row | IC50 (bound given in nM) | IC50 (bound given in μM) | SMILES
1 | ≤ 500 nM |  | NS(=O)(=O)OC[C@@H]1C[C@@H](N2CCc3c(N[C@H]4CCc5ccccc54)ncnc32)C[C@@H]1O [Compound I-146, ((1S,2S,4R)-4-{4-[(1S)-2,3-dihydro-1H-inden-1-ylamino]-5,6-dihydro-7H-pyrrolo[2,3-d]pyrimidin-7-yl}-2-hydroxycyclopentyl)methyl sulfamate]
2 | > 500 nM | < 10000 nM | NS(=O)(=O)OC[C@H]1CC[C@H](Oc2ncnc3[nH]c(-c4cccc5ccccc45)nc23)C1 [Compound I-152, ((1S,3S)-3-{[8-(1-naphthyl)-9H-purin-6-yl]oxy}cyclopentyl)methyl sulfamate]
3 | ≤ 500 nM |  | NS(=O)(=O)OC[C@@H]1C[C@@H](Oc2ncnc3nc(-c4c[nH]c5ccccc45)[nH]c23)C[C@@H]1O [Compound I-140, ((1S,2S,4R)-2-hydroxy-4-{[8-(1H-indol-3-yl)-7H-purin-6-yl]oxy}cyclopentyl)methyl sulfamate]
4 | ≤ 500 nM |  | CN(C)c1ccc(-c2nc3ncnc(O[C@@H]4C[C@@H](COS(N)(=O)=O)[C@@H](O)C4)c3[nH]2)c2ccccc12 [Compound I-103, [(1S,2S,4R)-4-({8-[4-(dimethylamino)-1-naphthyl]-7H-purin-6-yl}oxy)-2-hydroxycyclopentyl]methyl sulfamate]
5 | > 500 nM | < 10000 nM | NS(=O)(=O)OC[C@@H]1C[C@@H](Oc2cc(-c3ccccc3)ncn2)C[C@@H]1O [Compound I-114, {(1S,2S,4R)-2-hydroxy-4-[(6-phenylpyrimidin-4-yl)oxy]cyclopentyl}methyl sulfamate]
6 | ≤ 500 nM |  | NS(=O)(=O)OC[C@@H]1C[C@@H](Oc2ncnc3nc(-c4cnn(Cc5ccccc5)c4)[nH]c23)C[C@@H]1O [Compound I-129, ((1S,2S,4R)-4-{[8-(1-benzyl-1H-pyrazol-4-yl)-7H-purin-6-yl]oxy}-2-hydroxycyclopentyl)methyl sulfamate]
7 | > 500 nM | < 10000 nM | COc1ccc2c(c1)[C@@H](Nc1cc(O[C@@H]3C[C@@H](COS(N)(=O)=O)[C@@H](O)C3)ncn1)[C@@H](OC)CC2 [Compound I-149, {(1S,2S,4R)-4-[(6-{[(1R,2S)-2,7-dimethoxy-1,2,3,4-tetrahydronaphthalen-1-yl]amino}-pyrimidin-4-yl)oxy]-2-hydroxycyclopentyl}methyl sulfamate]
8 | ≤ 500 nM |  | CC1(C)Cc2cccc(-c3nc4c(N[C@@H]5C[C@@H](COS(N)(=O)=O)[C@@H](O)C5)ncnc4[nH]3)c2O1 [Compound I-100, ((1S,2S,4R)-4-{[8-(2,2-dimethyl-2,3-dihydro-1-benzofuran-7-yl)-9H-purin-6-yl]amino}-2-hydroxycyclopentyl)methyl sulfamate]
9 | ≤ 500 nM |  | CC1(C)C[C@H](Nc2cc(O[C@@H]3C[C@@H](COS(N)(=O)=O)[C@@H](O)C3)ncn2)c2ccccc21 [Compound I-124, {(1S,2S,4R)-4-[(6-{[(1S)-3,3-dimethyl-2,3-dihydro-1H-inden-1-yl]amino}pyrimidin-4-yl)oxy]-2-hydroxycyclopentyl}methyl sulfamate]

Continued, compound first:

Row | SMILES | IC50 (bound given in nM) | IC50 (bound given in μM)
10 | CO[C@@H]1Cc2ccccc2[C@@H]1Oc1cc(O[C@@H]2C[C@@H](COS(N)(=O)=O)[C@@H](O)C2)ncn1 [Compound I-98, {(1S,2S,4R)-2-hydroxy-4-[(6-{[(1S,2R)-2-methoxy-2,3-dihydro-1H-inden-1-yl]oxy}-pyrimidin-4-yl)oxy]cyclopentyl}methyl sulfamate] | > 500 nM | < 10000 nM
11 | CO[C@H]1Cc2ccccc2[C@H]1Nc1cc(N[C@@H]2C[C@@H](COS(N)(=O)=O)[C@@H](O)C2)ncn1 [Compound I-47, {(1S,2S,4R)-2-hydroxy-4-[(6-{[(1R,2S)-2-methoxy-2,3-dihydro-1H-inden-1-yl]-amino}pyrimidin-4-yl)amino]cyclopentyl}methyl sulfamate] | ≤ 500 nM | 
12 | Cc1nc(NCc2ccccc2)cc(N[C@@H]2C[C@H](COS(N)(=O)=O)[C@@H](O)[C@H]2O)n1 [Compound I-30, ((1R,2R,3S,4R)-4-{[6-(benzylamino)-2-methylpyrimidin-4-yl]amino}-2,3-dihydroxycyclopentyl)methyl sulfamate] |  | > 10000 nM
13 | NS(=O)(=O)OC[C@@H]1C[C@@H](Nc2ncnc3[nH]c(-c4cccc5ccccc45)cc23)C[C@@H]1O [Compound I-74, ((1S,2S,4R)-2-hydroxy-4-{[6-(1-naphthyl)-7H-pyrrolo[2,3-d]pyrimidin-4-yl]amino}cyclopentyl)methyl sulfamate] | ≤ 500 nM | 
14 | NS(=O)(=O)OC[C@@H]1C[C@@H](Oc2ccnc(N[C@H]3CCc4ccccc43)c2)C[C@@H]1O [Compound I-94, [(1S,2S,4R)-4-({2-[(1S)-2,3-dihydro-1H-inden-1-ylamino]pyridin-4-yl}oxy)-2-hydroxycyclopentyl]methyl sulfamate] | > 500 nM | < 10000 nM
15 | NS(=O)(=O)OC[C@@H]1C[C@@H](Nc2cc(CCc3ccccc3)ncn2)C[C@@H]1O [Compound I-81, ((1S,2S,4R)-2-hydroxy-4-{[6-(2-phenylethyl)pyrimidin-4-yl]amino}cyclopentyl)methyl sulfamate] | > 500 nM | < 10000 nM
16 | COc1cccc(OC)c1-c1nc2c(N[C@@H]3C[C@@H](COS(N)(=O)=O)[C@@H](O)C3)ncnc2[nH]1 [Compound I-93, ((1S,2S,4R)-4-{[8-(2,6-dimethoxyphenyl)-9H-purin-6-yl]amino}-2-hydroxycyclopentyl)methyl sulfamate] | ≤ 500 nM | 
17 | NS(=O)(=O)OC[C@@H]1C[C@@H](Oc2ncnc3nc(-c4ccnc5cc(Cl)ccc45)[nH]c23)C[C@@H]1O [Compound I-73, ((1S,2S,4R)-4-{[8-(7-chloroquinolin-4-yl)-7H-purin-6-yl]oxy}-2-hydroxycyclopentyl)methyl sulfamate] | ≤ 500 nM | 
18 | NS(=O)(=O)OC[C@@H]1C[C@@H](Nc2ncnc3[nH]c(-c4ccccc4)cc23)C[C@@H]1O [Compound I-38, {(1S,2S,4R)-2-hydroxy-4-[(6-phenyl-7H-pyrrolo[2,3-d]pyrimidin-4-yl)-amino]cyclopentyl}methyl sulfamate] | ≤ 500 nM | 
19 | NS(=O)(=O)OC[C@H]1C[C@@H](Nc2cc(NCc3ccccc3)ncn2)[C@H](O)[C@@H]1O [Compound I-27, ((1R,2R,3S,4R)-4-{[6-(benzylamino)pyrimidin-4-yl]amino}-2,3-dihydroxycyclopentyl)-methyl sulfamate] | ≤ 500 nM | 
20 | NS(=O)(=O)OC[C@H]1C[C@@H](NC(=O)c2cccnc2)[C@H](O)[C@@H]1O [Compound I-16, {(1R,2R,3S,4R)-2,3-dihydroxy-4-[(pyridin-3-ylcarbonyl)amino]cyclopentyl}-methyl sulfamate] | > 500 nM | < 10000 nM
21 | NS(=O)(=O)OC[C@@H]1C[C@@H](Nc2ncnc3nc(-c4cccc5cccnc45)[nH]c23)C[C@@H]1O [Compound I-84, {(1S,2S,4R)-2-hydroxy-4-[(8-quinolin-8-yl-7H-purin-6-yl)amino]cyclopentyl}methyl sulfamate] | ≤ 500 nM | 
22 | NS(=O)(=O)OC[C@@H]1C[C@@H](Nc2cc(N[C@H]3CCc4ccccc43)ncn2)C[C@@H]1O [Compound I-5, [(1S,2S,4R)-4-({6-[(1S)-2,3-dihydro-1H-inden-1-ylamino]pyrimidin-4-yl}amino)-2-hydroxycyclopentyl]methyl sulfamate] | ≤ 500 nM | 
23 | NS(=O)(=O)OC[C@@H]1C[C@@H](Nc2c(Cl)cnc3[nH]c(-c4cccc5ccccc45)nc23)C[C@@H]1O [Compound I-56, ((1S,2S,4R)-4-{[6-chloro-2-(1-naphthyl)-3H-imidazo[4,5-b]pyridin-7-yl]amino}-2-hydroxycyclopentyl)methyl sulfamate] | ≤ 500 nM | 
24 | CN(C)c1ccc(-c2nc3c(N[C@@H]4C[C@@H](COS(N)(=O)=O)[C@@H](O)C4)ncnc3[nH]2)c2ccccc12 [Compound I-64, [(1S,2S,4R)-4-({8-[4-(dimethylamino)-1-naphthyl]-9H-purin-6-yl}amino)-2-hydroxycyclopentyl]methyl sulfamate] | ≤ 500 nM | 
25 | NS(=O)(=O)OC[C@H]1C[C@@H](Nc2cc(NCC3CCCCC3)ncn2)[C@H](O)[C@@H]1O [Compound I-14, [(1R,2R,3S,4R)-4-({6-[(cyclohexylmethyl)amino]pyrimidin-4-yl}amino)-2,3-dihydroxycyclopentyl]methyl sulfamate] | ≤ 500 nM | 
